According to ChEMBL document CHEMBL6153135, “Rational Design of a Potent, Selective, and Metabolically Stable CDK9 Inhibitor to Counteract Osimertinib Resistance through Mcl-1 Suppression and Enhanced BRD4 Co-Targeting” (J Med Chem, 2025):
Activity calls are given as the source filed them. The rule behind the calls is not given here.

Tests used:
[1] = Toxicity in BALB-c nude mouse xenografted with human NCI-H1975 cells assessed as body weight loss at 15 mg/kg, iv administered on every two days; format: organism-based; details: in vivo
[2] = Anti-proliferative activity against human Osimertinib-resistant HCC827 cells assessed as cell inhibition measured after 72 hrs by MTT assay; format: functional, cell-based
[3] = system: Lung adenocarcinoma organoid; test: Anti-tumor activity against patient (#2514)-derived human Lung adenocarcinoma organoid assessed as inhibition of cell viability measured after 96 hrs; format: functional, tissue-based; details: Neoplasm
[4] = target: Cyclin-dependent kinase 5/CDK5 activator 1 (Homo sapiens) (UniProt Q00535+Q15078); test: Inhibition of CDK5/p35NCK (unknown origin) at 100 nM preincubated for 10 mins followed by substrate/ATP measured after 60 mins by ADP-Glo assay relative to control; format: protein-complex assay; details: time 70.0 min
NCI-H1975 [5] = test: Antitumor activity against human NCI-H1975 cells xenografted in BALB-c nude mouse at 15 mg/kg, iv administered on every two days relative to control; format: functional; details: NCI-H1975, 48 h, read-out: TGI
Mus musculus = test: In vivo downregulation of c-Myc level in tumor tissue of BALB-c nude mouse xenografted with human Osimertinib-resistant HCC827 cells at 5 mg/kg, iv in presence of JQ1 by Western blot analysis; format: functional, organism-based
[6] = AUC (0 to t) in BALB/c mouse at 2 mg/kg, iv; format: ADME, organism-based; details: in vivo
Homo sapiens = species on record: Homo sapiens; test: Inhibition of CDK12/Cyclin E1(unknown origin) at 100 nM preincubated for 10 mins followed by substrate/ATP measured after 60 mins by ADP-Glo assay relative to control; details: time 70.0 min
[7] = target: Cyclin-dependent kinase 9 (Homo sapiens) (UniProt P50750); test: Inhibition of CDK9 in human Osimertinib-resistant HCC827 cells assessed as decrease in Mcl-1 level at 100 to 500 nM incubated for 12 hrs by Western blot analysis; format: cell-based; details: Osimertinib-resistant HCC827 cell, dose 100-500 nM
[8] = Metabolic stability in mouse liver microsomes assessed as half life measured for 5 to 60 mins by LC-MS/MS analysis; format: ADME, Microsome; details: time 5-60 min
[9] = Metabolic stability in monkey liver microsomes assessed as clearance measured for 5 to 60 mins by LC-MS/MS analysis; format: ADME, Macaca mulatta, Microsome; details: rhesus monkey, time 5-60 min, read-out: CLH
[10] = system: Osimertinib-resistant NCI-H1975 cell; test: Anti-proliferative activity against human Osimertinib-resistant NCI-H1975 cells assessed as cell inhibition measured after 72 hrs in presence of 500 nM JQ1 by MTT assay; format: functional, cell-based
[11] = Anti-proliferative activity against human Osimertinib-resistant HCC827 cells assessed as cell inhibition measured after 72 hrs in presence of 250 nM JQ1 by MTT assay; format: functional, cell-based
[12] = target: Homeodomain-interacting protein kinase 2 (Homo sapiens) (UniProt Q9H2X6); test: Inhibition of HIPK2 (unknown origin) at 100 nM preincubated for 10 mins followed by substrate/ATP measured after 60 mins by ADP-Glo assay relative to control; details: time 70.0 min
[13] = system: Osimertinib-resistant HCC827 cell; test: Inhibition of homologous recombination repair in human Osimertinib-resistant HCC827 cells by KEGG analysis; format: functional, cell-based
[14] = system: Osimertinib-resistant NCI-H1975 cell; test: Selectivity ratio of IC50 for anti-proliferative activity against human Osimertinib-resistant NCI-H1975 cells to IC50 for anti-proliferative activity against human Osimertinib-resistant NCI-H1975 cells in presence of JQ1; format: functional
HCC827 = test: Anti-proliferative activity against human HCC827 cells assessed as cell inhibition measured after 72 hrs by MTT assay; format: functional, cell-based; details: HCC827, 72 h
[15] = Downregulation of c-Myc level in human Osimertinib-resistant HCC827 cells at 100 nM incubated for 12 hrs in presence of JQ1 by Western blot analysis relative to control; format: functional, Osimertinib-resistant HCC827 cell
[16] = AUC (0 to infinity) in BALB/c mouse at 2 mg/kg, iv; format: ADME, organism-based; details: in vivo
[17] = target: Glycogen synthase kinase-3 beta (Homo sapiens) (UniProt P49841); test: Inhibition of GSK3beta (unknown origin) at 100 nM preincubated for 10 mins followed by substrate/ATP measured after 60 mins by ADP-Glo assay relative to control; details: time 70.0 min
[18] = Tmax in BALB/c mouse at 15 mg/kg, po; format: ADME, organism-based; details: in vivo
PC-9 = test: Anti-proliferative activity against human PC-9 cells assessed as cell inhibition measured after 72 hrs by MTT assay; format: functional, cell-based; details: PC-9, 72 h
NCI-H1975 [19] = test: Anti-proliferative activity against human NCI-H1975 cells assessed as cell inhibition measured after 72 hrs in presence of 250 nM JQ1 by MTT assay; format: functional, cell-based; details: NCI-H1975, 72 h
CDK2/Cyclin A2 = CDK2/Cyclin A2 (Homo sapiens, UniProt P24941); test: Inhibition of CDK2/Cyclin A2 (unknown origin) preincubated for 10 mins followed by substrate/ATP measured after 60 mins by ADP-Glo assay; format: protein-complex assay
[20] = Drug concentration in tumor of BALB-c nude mouse xenografted with human NCI-H1975 cells at 15 mg/kg, iv measured after 30 mins by LC-MS/MS analysis; format: ADME, organism-based, Neoplasm; details: read-out: Ct
[21] = system: Osimertinib-resistant NCI-H1975 cell; test: Induction of apoptosis in human Osimertinib-resistant NCI-H1975 cells assessed as early apoptotic cells at 0.5 uM incubated for 16 hrs by Annexin V-FITC/PI staining based flow cytometry (reference value: 8.02 %); format: functional
[22] = Oral bioavailability in Sprague-Dawley rat at 20 mg/kg; format: ADME, organism-based; details: in vivo
[23] = target: Homeodomain-interacting protein kinase 3 (Homo sapiens) (UniProt Q9H422); test: Inhibition of HIPK3 (unknown origin) at 100 nM preincubated for 10 mins followed by substrate/ATP measured after 60 mins by ADP-Glo assay relative to control; details: time 70.0 min
[24] = Metabolic stability in dog liver microsomes assessed as clearance measured for 5 to 60 mins by LC-MS/MS analysis; format: ADME, Canis lupus familiaris, Microsome; details: time 5-60 min, read-out: CLH
[25] = Apparent volume of distribution in BALB/c mouse at 2 mg/kg, iv; format: ADME, organism-based; details: in vivo, read-out: Vz
NCI-H1299 = test: Anti-proliferative activity against human NCI-H1299 cells assessed as cell inhibition measured after 72 hrs by MTT assay; format: functional, cell-based; details: NCI-H1299, 72 h

Sequence of Glycogen synthase kinase-3 beta (Homo sapiens) (P49841 whole entry, looked up): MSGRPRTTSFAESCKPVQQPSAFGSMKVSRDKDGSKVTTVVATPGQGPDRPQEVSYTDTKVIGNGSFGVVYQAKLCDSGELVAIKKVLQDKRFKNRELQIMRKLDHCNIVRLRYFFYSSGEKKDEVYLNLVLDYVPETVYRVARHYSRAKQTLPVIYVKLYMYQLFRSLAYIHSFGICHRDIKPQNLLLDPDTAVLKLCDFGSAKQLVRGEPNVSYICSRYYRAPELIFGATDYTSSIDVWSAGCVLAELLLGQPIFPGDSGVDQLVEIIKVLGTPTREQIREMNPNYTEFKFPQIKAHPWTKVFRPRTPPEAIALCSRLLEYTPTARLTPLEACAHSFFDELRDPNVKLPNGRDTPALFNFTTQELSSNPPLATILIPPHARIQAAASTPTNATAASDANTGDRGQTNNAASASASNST
Sequence of Cyclin-dependent kinase 5/CDK5 activator 1 (Homo sapiens) (Q00535 whole entry): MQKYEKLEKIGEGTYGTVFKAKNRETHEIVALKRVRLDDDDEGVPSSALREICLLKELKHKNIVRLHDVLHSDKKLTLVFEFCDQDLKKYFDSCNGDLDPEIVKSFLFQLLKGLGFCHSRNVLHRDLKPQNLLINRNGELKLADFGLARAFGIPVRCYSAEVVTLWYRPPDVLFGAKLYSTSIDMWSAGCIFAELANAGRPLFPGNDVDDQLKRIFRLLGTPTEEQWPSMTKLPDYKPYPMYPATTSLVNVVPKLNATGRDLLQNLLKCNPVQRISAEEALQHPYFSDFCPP
Sequence of Cyclin-dependent kinase 5/CDK5 activator 1 (Homo sapiens) (Q15078 99-307 partner limits assumed): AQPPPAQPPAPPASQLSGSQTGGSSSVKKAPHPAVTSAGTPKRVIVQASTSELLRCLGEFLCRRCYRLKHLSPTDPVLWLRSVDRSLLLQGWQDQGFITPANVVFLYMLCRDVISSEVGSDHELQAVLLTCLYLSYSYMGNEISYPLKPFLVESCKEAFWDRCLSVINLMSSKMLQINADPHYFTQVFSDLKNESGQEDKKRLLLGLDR
Sequence of Cyclin-dependent kinase 9 (Homo sapiens) (P50750 whole entry): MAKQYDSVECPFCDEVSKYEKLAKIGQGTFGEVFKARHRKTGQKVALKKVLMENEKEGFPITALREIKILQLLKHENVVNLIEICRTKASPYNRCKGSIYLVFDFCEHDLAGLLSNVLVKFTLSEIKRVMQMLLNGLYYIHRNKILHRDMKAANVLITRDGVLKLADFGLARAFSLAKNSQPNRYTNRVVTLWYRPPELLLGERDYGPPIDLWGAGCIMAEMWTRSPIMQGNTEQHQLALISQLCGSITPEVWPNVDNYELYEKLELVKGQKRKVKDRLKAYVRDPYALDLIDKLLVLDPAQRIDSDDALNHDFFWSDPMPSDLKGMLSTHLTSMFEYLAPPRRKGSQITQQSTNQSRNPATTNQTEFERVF
Sequence of Homeodomain-interacting protein kinase 2 (Homo sapiens) (Q9H2X6 whole entry, looked up): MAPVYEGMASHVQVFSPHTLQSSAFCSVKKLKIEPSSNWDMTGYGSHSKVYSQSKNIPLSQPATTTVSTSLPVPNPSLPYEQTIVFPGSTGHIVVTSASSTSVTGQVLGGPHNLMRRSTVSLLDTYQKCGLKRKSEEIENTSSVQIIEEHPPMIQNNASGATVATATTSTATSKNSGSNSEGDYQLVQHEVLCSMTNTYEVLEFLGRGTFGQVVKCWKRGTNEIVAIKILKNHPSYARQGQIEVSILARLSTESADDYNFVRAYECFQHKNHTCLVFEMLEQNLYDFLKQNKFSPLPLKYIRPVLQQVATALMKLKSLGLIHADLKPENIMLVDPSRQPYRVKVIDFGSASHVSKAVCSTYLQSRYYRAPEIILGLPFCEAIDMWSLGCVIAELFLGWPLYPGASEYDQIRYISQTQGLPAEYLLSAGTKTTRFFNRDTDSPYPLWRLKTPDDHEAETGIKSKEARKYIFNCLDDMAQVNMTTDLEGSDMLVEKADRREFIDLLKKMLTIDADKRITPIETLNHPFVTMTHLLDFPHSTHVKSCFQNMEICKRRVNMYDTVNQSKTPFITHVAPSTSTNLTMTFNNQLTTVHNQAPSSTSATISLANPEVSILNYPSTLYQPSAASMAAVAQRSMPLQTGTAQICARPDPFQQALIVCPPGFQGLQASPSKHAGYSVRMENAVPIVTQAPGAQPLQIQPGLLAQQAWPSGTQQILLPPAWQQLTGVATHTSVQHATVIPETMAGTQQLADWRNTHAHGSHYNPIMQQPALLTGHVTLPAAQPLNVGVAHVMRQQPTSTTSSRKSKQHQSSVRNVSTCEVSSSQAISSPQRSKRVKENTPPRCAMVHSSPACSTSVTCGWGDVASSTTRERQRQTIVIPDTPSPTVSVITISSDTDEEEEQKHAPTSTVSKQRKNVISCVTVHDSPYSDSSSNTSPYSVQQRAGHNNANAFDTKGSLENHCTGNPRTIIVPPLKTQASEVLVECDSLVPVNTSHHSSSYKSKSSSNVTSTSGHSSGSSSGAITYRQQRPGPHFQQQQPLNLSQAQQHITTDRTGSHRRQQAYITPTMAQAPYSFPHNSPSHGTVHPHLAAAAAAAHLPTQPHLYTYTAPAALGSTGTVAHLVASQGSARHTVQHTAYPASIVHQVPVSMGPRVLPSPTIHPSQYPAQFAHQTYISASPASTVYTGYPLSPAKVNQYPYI
Sequence of Homeodomain-interacting protein kinase 3 (Homo sapiens) (Q9H422 whole entry, looked up): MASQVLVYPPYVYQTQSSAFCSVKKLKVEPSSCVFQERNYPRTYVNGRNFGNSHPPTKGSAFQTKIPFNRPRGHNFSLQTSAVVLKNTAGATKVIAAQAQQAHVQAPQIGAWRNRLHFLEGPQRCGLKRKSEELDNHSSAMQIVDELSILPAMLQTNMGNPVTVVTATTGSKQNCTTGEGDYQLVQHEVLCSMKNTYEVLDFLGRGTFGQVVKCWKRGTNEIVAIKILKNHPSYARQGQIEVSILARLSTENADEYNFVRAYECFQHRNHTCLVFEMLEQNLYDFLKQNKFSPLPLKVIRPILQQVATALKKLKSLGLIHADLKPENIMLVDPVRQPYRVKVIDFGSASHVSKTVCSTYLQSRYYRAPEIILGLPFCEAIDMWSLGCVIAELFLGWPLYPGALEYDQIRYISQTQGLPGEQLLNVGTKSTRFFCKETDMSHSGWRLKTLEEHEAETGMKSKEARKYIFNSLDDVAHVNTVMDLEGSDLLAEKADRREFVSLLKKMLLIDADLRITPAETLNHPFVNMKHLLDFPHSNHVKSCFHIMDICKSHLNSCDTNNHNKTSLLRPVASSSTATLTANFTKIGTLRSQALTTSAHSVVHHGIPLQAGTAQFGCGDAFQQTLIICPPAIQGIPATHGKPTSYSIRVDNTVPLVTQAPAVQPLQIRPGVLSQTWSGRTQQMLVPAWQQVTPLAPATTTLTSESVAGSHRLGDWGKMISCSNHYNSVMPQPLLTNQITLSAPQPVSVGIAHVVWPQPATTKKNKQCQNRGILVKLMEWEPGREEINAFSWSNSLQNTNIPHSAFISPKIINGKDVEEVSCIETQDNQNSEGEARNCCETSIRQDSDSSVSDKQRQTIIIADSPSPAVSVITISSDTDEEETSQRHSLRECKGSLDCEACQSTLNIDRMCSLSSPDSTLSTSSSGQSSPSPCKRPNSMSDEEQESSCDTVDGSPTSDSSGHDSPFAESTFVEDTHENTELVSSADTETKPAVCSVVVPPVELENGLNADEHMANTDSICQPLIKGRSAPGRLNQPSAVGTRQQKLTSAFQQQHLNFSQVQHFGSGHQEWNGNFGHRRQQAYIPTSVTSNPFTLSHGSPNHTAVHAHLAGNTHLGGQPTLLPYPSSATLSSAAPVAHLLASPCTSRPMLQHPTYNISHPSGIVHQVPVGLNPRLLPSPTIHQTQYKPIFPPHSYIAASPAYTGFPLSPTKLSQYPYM

For `CC(=O)N1CCC(NC(=O)c2ccc3cc2OCCCCCCOc2cc(ccc2F)-c2nc(ncc2F)N3)CC1`, the Activity [1] was “Non-toxic”, the IC50 [2] was 63.9 nM and the IC50 [3] was < 50 nM. For the same compound, the inhibition [4] was 7.24%, the inhibition in vivo at 15 mg/kg (NCI-H1975 [5]) was 65.8% and the Activity (Mus musculus) was “Active”. For the same compound, the AUC(0-t) [6] was 380 ng·h/mL, the inhibition (Homo sapiens) was 23.7% and the inhibition [7] was “Active”. For the same compound, the half-life [8] was 64.2 min, the microsomal CLint [9] was 23.5 µL/min/mg and the IC50 [10] was 4.3 nM. For the same compound, the IC50 [11] was 12.3 nM, the inhibition [12] was 96% and the inhibition [13] was “Active”. For the same compound, the “Ratio IC50” value [14] was 10, the IC50 (HCC827) was 150 nM and the Activity [15] was 100%. For the same compound, the AUC(0-inf) [16] was 396 ng·h/mL, the inhibition [17] was 94.1% and the Tmax [18] was 33.6 min. The IC50 (PC-9) was 140 nM, the IC50 (NCI-H1975 [19]) was 29.7 nM and the IC50 (CDK2/Cyclin A2) was 126 nM. The concentration at 0.5 h [20] was 864 ng/mL, the Activity [21] was 25.4% and the bioavailability [22] was 14.3%. It also gave an inhibition [23] of 82.5%, a microsomal CLint [24] of 18.4 µL/min/mg and a Vd [25] of 30.7 L/kg. The IC50 (NCI-H1299) was 70 nM.
